“And” between values parts separate entries of the source, which are not always exact repeats. Equal values may be shown once.
Legend:
[1] = system: L. donovani promastigotes; experiment: Antileishmanial activity on L. donovani promastigotes (resazurin cell viability assay); assay type: cell-based, Leishmania donovani; conditions: for IC50: resazurin assay, 0.03 to 44 μM, means ± S.E. of three experiments; for SI Values Promastigotes: SI = IC50 (mouse fibroblast) ÷ IC50 (promastigotes)
Protocol: Approximately 5×10^5 promastigotes/ml of L. donovani Khartum strain were inoculated into Yeager's Liver infusion tryptose (YLIT) medium or Brain Heart Infusion (BHI) broth (Difco), supplemented with glucose (2.5 mg/ml), 50 U/ml Pen-Strep and 0.005 mM Hemin at 25-26° C. and subcultured bi-weekly, Mikus et al., Parasitol Int., 48(3):265-9 (2000) (Mikus and Steverding, 2000).
(§1) The Leishmanicidal properties of fifteen naphthoquinone compounds (FIG. 1) on L. donovani promastigotes proliferation were assessed by the resazurin cell viability assay. Promastigotes from axenic culture were harvested during the exponential phase of growth (at least 5-day old culture), incubated at a concentration of 2×10^5 cells/200 μl with and without dilutions of compounds in 96-well microtitre plates. Dilutions of compounds covering 0.03 μM to 44 μM were prepared. […] 20 μl Alamar Blue (12.5 mg resazurin dissolved in 100 ml distilled water (Sigma #R7017)) (Mikes and Steverding, 2000) were added to each well and plates were incubated for another 2 hrs. […] Decrease in fluorescence (inhibition), were expressed as percentage of the fluorescence of control cultures and were plotted against the concentrations of compounds. The IC50 values were calculated from the sigmoidal inhibition curves.

[2] = system: L. donovani promastigotes; experiment: Dose and time-dependent inhibitory effect on L. donovani promastigotes (2, 4, 6, 24 hours exposure); assay type: cell-based, Leishmania donovani
Protocol: as §1
A time and dose-dependent inhibitory effect of all 15 imido-substituted naphthoquinone compounds was assessed on their activity on promastigotes of L. donovani. Promastigotes were plated in 96-well plates and incubated in different concentrations of each compound (0.03 to 44 μM), incubated for two hours and viabilities assayed by the resazurin assay. A two hour exposure was assessed by calculation of IC50 values of each compound. Values are means±S.E. (Standard Error).
(§2) A time and dose-dependent inhibitory effect of all 15 imido-substituted naphthoquinone compounds was assessed on their activity on promastigotes of L. donovani. Promastigotes were plated in 96-well plates and incubated in different concentrations of each compound (0.03 to 44 μM), incubated for four hours and cell viabilities assayed by the resazurin assay. A four hour exposure was assessed by calculation of IC50 values of each compound. Values are means±S.E. (Standard Error).
Promastigotes were plated in 96-well plates and incubated in different concentrations of each compound (0.03 to 44 μM), incubated for six hours and cell viabilities assayed by the resazurin assay. A six hour exposure was assessed by calculation of IC50 values of each compound. Values are means±S.E. (Standard error).
as §2, with “incubated for twenty four hours” for “incubated for four hours”, “assay. A twenty four hour” for “assay. A four hour”

serum IgG = experiment: Seroprevalence of L. donovani-specific serum IgG (ELISA) in infected BALB/c mice; assay type: in vivo; conditions: serum 14 days post-infection
Protocol: To make L. donovani crude antigens, L. donovani promastigotes and amastigotes were counted using a hemocytometer, spun at 800×g for 10 min, and washed three times with 1× phosphate buffered saline (PBS). After the final wash, parasites were resuspended in 1×PBS at a concentration of 1×10^8 promastigotes (amastigotes)/ml and lysed by 5 freeze and thaw cycles or by sonication at maximum speed for 5 cycles of 10 seconds with cooling, and frozen at −80° C. until needed for assay (Burns et al., 1993; Zijlstra et al., 1998). Protein concentration was determined by the BIORAD assay.
5 μg/ml of antigen in 100 mM carbonate-bicarbonate buffer […], were added to the wells of a 96 well polyvinyl plate (100 μl/well) and incubated at room temperature for 1 hr or overnight at 4° C. Wells were emptied, blocking buffer was added (200 μl/well), and wells were incubated at room temperature for 1 hr. Wells were emptied and 50 or 100 μl/well of diluted samples added (5× mice serum), and incubated for 1.5-2 hrs. Plates were washed 4× and an anti-mouse-IgG was diluted 1:500, and added (100 μl/well); these plates were incubated for 30 min in the dark and secondary antibody tagged to HRP was added at a dilution of 1:500. TMB-HRP developer was added 100 μl/well for 30 min in the dark and plates were read at 630 nm on a spectrophotometer (Zijlstra et al., 1998).
The purpose of the test was to confirm positive infectivity through levels of serum IgG in infected BALB/c mice. A high serum IgG level is predictive of an infection with visceral leishmaniasis. The results are expressed as percent increase or percent decrease in IgG levels. Four compounds with three different concentrations each were used for the tests.
Serum levels of IgG in infected but untreated mice increased by 20.36% compared to that of uninfected mice. […] Specific-parasite IgG antibodies produced by BALB/c mice inoculated with 10^6 infective concentrations of Leishmania donovani. Mice (n=2 per group) were infected subcutaneously at the base of their tail with log phase promastigotes. […] Serum from mice was obtained fourteen days post-infection and tested individually by ELISA to determine the specific levels of L. donovani IgG. Bars indicate the mean±S.E. (Standard Error) from two mice.

[3] = system: NIH 3T3 BALB/c mouse fibroblast cell line; experiment: Cytotoxic assessment on NIH 3T3 BALB/c mouse fibroblasts (resazurin assay); conditions: for cytotoxicity compared with Amphotericin B: Balb/C 3T3 mouse fibroblast cell line, FIG. 2; for IC50: read-out: IC50 (μM) Fibroblasts, NIH 3T3 BALB/c mouse fibroblasts, 48 hrs, resazurin assay, means ± S.E.
Protocol: Fibroblasts cells (4×10^4 cells/nil and adding 100 μl per well) were incubated with different concentrations of the naphthoquinone compounds (FIGS. 1) (3, 7, 13, 29, 33, and 44 μM) for 48 hrs after which viability of live fibroblast cells was determined by the Resazurin Method using a microplate reader (Bio-Tek Instruments EL311).
NIH 3T3 mouse fibroblasts were maintained in Roswell Park Memorial Institute (RPMI) medium supplemented with 10% Fetal calf serum, 50 units/ml penicillin, 50 units/ml streptomycin B in a humidified incubator at 37° C. in the presence of 5% CO2 (Scala et al., 2010).
Assays were performed to assess the cytotoxicity of these compounds in 96-well microtiter plates, with each well containing 100 μl of RPMI medium supplemented with 10% bovine calf scrum with 50 U/ml Pen-Strep. The cells were plated at a concentration of 4×10^3 cells/well (4×10^4 cells/ml). Fibroblast cells were then incubated with compounds for 48 hrs and inspected under an inverted microscope to assure growth of the controls and sterile conditions. 10 μl of resazurin solution (12.5 mg resazurin dissolved in 100 nil distilled water) were added to each well and the plates were incubated for another 2 hrs. The plates were read with a microplate reader at 570 nm. Experiments were done at least 3 times in triplicates (Scala et al., 2010).
Cell viability was determined using Resazurin Assay. The IC50 values were calculated and expressed as means±S.E (standard error).

[4] = Leishmania donovani, read-out: IC50 (μM) Promastigotes, L. donovani promastigotes
[5] = Leishmania donovani, 2 h, read-out: Antileishmanial Activity IC50 (μM) 2 hours
[6] = Leishmania donovani, 4 h, read-out: Antileishmanial Activity IC50 (μM) 4 hours
[7] = Leishmania donovani, 6 h, read-out: Antileishmanial Activity IC50 (μM) 6 hours
[8] = Leishmania donovani, 24 h, read-out: Antileishmanial Activity IC50 (μM) 24 hours

Compound	IC50 [1, 4]	SI Values Promastigotes [1]	IC50 ([1]; read-out: IC50 (μM) Promastigotes, L. donovani promastigotes)	IC50 [2, 5]	IC50 [2, 6]	IC50 [2, 7]	IC50 [2, 8]	IgG Increase (%) (serum IgG; 5 mg/kg)	IgG Increase (%) (serum IgG; 20 mg/kg)	IgG Increase (%) (serum IgG; 50 mg/kg)	cytotoxicity compared with Amphotericin B [3]	IC50 [3]	melting point	IC50 ([2]; promastigotes, 6 hours exposure, means ± S.E., read-out: Antileishmanial Activity IC50 (μM) 6 hours)	IC50 ([2]; promastigotes, 24 hours exposure, means ± S.E., read-out: Antileishmanial Activity IC50 (μM) 24 hours)	IC50 ([2]; read-out: Antileishmanial Activity IC50 (μM) 2 hours, promastigotes, 2 hours exposure, means ± S.E.)	IC50 ([2]; read-out: Antileishmanial Activity IC50 (μM) 4 hours, promastigotes, 4 hours exposure, means ± S.E.)
NC1=C(Br)C(=O)c2ccccc2C1=O [IMD8, 2-Amino-3-bromo-1,4-naphthoquinone]	4.3 µM	3301.71±321.1 and 3301.71	4.4 ± 0.4 µM	0.021 ± 0.001 µM	64.2 ± 11.8 µM	23100 µM	12 ± 0.8 µM	20.94%	28.66%	23.16%	far less cytotoxic than Amphotericin B	–	–	–	–	–	–
CCCC(=O)N(C(=O)CCC)C1=C(Cl)C(=O)c2ccccc2C1=O [IMDNQ15]	–	61250.00±438 and 61250.00	–	8.6 ± 0.01 µM	–	116.35 ± 0.07 µM	3.96 µM	21.79%	14.12%	30.70%	–	2.94 µM	–	–	–	–	–
O=C1C(Cl)=C(N(C(=O)c2cccc(Cl)c2)C(=O)c2cccc(Cl)c2)C(=O)c2ccccc21 [IMDNQ4, 3-Chloro-N-(3-chlorobenzoyl)-N-(3-chloro-1,4-dioxo-1,4-dihydronaphthalen-2-yl)-benzamide]	6.81 µM	24.65±12.51 and 24.65	–	3.52 ± 3.6 µM	21.5 ± 9.6 µM	4.11 ± 6.3 µM	3.96 ± 1.3 µM	11.34%	6.81%	26.76%	far less cytotoxic than Amphotericin B	168 µM	258 to 260 °C	–	–	–	–
C[C@@H]1[C@H](O)[C@@H](C)/C=C/C=C/C=C/C=C/C=C/C=C/C=C/[C@H](O[C@@H]2O[C@H](C)[C@@H](O)[C@H](N)[C@@H]2O)C[C@@H]2O[C@](O)(C[C@@H](O)C[C@@H](O)[C@H](O)CC[C@@H](O)C[C@@H](O)CC(=O)O[C@H]1C)C[C@H](O)[C@H]2C(=O)O [Am. B., Amphotericin B, reference compound]	–	–	–	–	–	–	–	–	24.74%	–	–	1.18 µM	–	52 ± 12.2 µM	4.1 ± 0.4 µM	3.09 ± 2 µM	4.49 ± 0.3 µM

— patent US20140336187A1, “METHODS FOR TREATING LEISHMANIASIS” (HOWARD UNIVERSITY, priority 2011, published 2014)
